# In patent US20180148452A1, “TOLL-LIKE RECEPTOR-7 AGONIST” (MEDSHINE DISCOVERY INC., priority 2014, published 2018):
# Where a name gives a salt, the structure may show the parent alone.
# Key:
# Female Balb/c mice = experiment: Induction of IFN-α and TNF-α following intranasal dosing in the mouse; assay type: in vivo; conditions: serum, 2 h after single i.n. dose; for IFN-α Conc. (1 mM): 1 mM (0.1 mpk); for IFN-α Conc. (3 mM) / TNF-α Conc. (3 mM): 3 mM (0.3 mpk); for IFN-α Conc. (10 mM) / TNF-α Conc. (10 mM): 10 mM (1 mpk); for IFN-α Conc. (30 mM) / TNF-α Conc. (30 mM): 30 mM (3 mpk)
# Description: Test 3: Assay for the Induction of Interferon-α (IFN-α) and Tumor Necrosis Factor-α (TNF-α) Following Intranasal Dosing in the Mouse
# Female Balb/c mice (18-20 g) were anesthetized with isoflurane and then administered intranasally (20 μL in total between the nostrils) with compounds dissolved in saline with 0.2% Tween 80. After two hours, mice were euthanased by CO2 inhalation and blood samples were taken by cardiac puncher. Then blood samples were centrifuged and serum was collected. Serum samples were tested by ELISA with appropriate dilution according to the manufacturer's instructions. In this model, compounds could induce different IFN-α/TNF-α levels related to the dose of the compounds, while no IFN-α/TNF-α was detected in vehicle treated controls.
# hTLR7 = molecular target: T1, hTLR7 (Homo sapiens, UniProt Q9NYK1); experiment: TLR7 agonist screening protocol in vitro (HEK-Blue-hTLR7 reporter, QUANTI-Blue); assay type: cell-based; conditions: HEK-Blue-hTLR7 cells, 24 hours incubation, alkaline phosphatase OD650
# T1 construct: expressed in transfected cells; host or cells: HEK-Blue-hTLR7 cells (HEK293-derived SEAP reporter line)
# T1 sequence (Q9NYK1 27-1049): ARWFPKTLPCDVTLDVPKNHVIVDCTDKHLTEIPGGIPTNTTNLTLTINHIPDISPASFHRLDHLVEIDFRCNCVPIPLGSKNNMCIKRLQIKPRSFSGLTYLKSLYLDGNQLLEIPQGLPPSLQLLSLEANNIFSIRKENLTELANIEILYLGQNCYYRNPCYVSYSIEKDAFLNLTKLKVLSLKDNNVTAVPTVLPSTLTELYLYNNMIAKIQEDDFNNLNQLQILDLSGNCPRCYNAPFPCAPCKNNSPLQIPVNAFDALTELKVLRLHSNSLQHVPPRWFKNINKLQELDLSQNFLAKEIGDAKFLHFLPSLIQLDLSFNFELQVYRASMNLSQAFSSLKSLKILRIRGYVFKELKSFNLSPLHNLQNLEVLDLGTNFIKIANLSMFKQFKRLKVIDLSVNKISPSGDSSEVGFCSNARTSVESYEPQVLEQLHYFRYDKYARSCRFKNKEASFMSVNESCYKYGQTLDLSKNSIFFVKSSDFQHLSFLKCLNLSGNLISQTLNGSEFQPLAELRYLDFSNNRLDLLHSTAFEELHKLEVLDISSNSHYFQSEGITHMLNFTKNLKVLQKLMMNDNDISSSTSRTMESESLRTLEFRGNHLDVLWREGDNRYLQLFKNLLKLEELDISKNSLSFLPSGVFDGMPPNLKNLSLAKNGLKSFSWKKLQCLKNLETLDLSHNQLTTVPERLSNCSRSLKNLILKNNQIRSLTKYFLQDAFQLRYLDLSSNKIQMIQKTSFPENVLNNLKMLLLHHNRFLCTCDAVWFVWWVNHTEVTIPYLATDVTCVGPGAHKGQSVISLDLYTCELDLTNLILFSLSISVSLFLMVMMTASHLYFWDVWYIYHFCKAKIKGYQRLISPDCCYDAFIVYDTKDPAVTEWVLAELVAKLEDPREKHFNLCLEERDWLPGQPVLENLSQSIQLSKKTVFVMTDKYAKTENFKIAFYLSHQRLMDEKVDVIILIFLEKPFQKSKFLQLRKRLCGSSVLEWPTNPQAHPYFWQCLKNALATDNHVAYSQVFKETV
# Description: Test 1: TLR7 Agonist Screening Protocol In Vitro
# 1. Preparation for 96-well plate: Compounds are 3 folds serial diluted with DMSO by POD, start from 10 mM, 10 concentrations (column 2 to 11, duplicated), 1 μL DMSO per well. Take 1 μL of 5 mM R848 as positive control (column 12) and 1 μL of DMSO as negative control (column 1).
# 2. Harvest cells and adjust cell suspension to the density of 250,000 cells/ml.
# 3. 200 μL cells are seeded into the cell culture plate containing compounds with the cell density of 50,000 cells/well, the final DMSO concentration is 0.5%.
# 4. Incubate the plates containing the cells and compounds at 37° C., 5% CO2 for 24 hours.
# 5. After 24 hours' incubation, fetch 20 μL supernatant from each well to transfer to another transparent 96-well cell culture plate. Add 180 μL QUANTI-Blue to each well of the cell culture plate containing 20 μL supernatant, and incubate at 37° C., 5% CO2 for 1 hour.
# 6. After 1 hour, determine alkaline phosphatase levels in 20 μL supernatant by using ELIASA reading at OD650.
# 7. Data analysis by Prism software, EC50 of each compound was obtained.
Compound,EC50 (hTLR7) [nM],also measured
"CCCCOc1nc(N)c2[nH]c(C#N)c(CCCCCN3CCCCC3)c2n1 [Example 1, 4-Amino-2-butoxy-7-(5-(piperidin-1-yl)pentyl)-5H-pyrrolo[3,2-d]pyrimidine-6-carbonitrile formate]",1 to 100,IFN-α Conc. (1 mM) (Female Balb/c mice): 500 pg/mL; IFN-α Conc. (3 mM) (Female Balb/c mice): 4500 pg/mL; TNF-α Conc. (3 mM) (Female Balb/c mice): 100 pg/mL; IFN-α Conc. (10 mM) (Female Balb/c mice): 7500 pg/mL; TNF-α Conc. (10 mM) (Female Balb/c mice): 300 pg/mL; IFN-α Conc. (30 mM) (Female Balb/c mice): 7000 pg/mL; TNF-α Conc. (30 mM) (Female Balb/c mice): 500 pg/mL
"CCC[C@H](C)Oc1nc(N)c2[nH]c(C#N)c(CCCCCN3CCCCC3)c2n1 [Example 2, (S)-4-amino-(1-methylbutoxy)-7-(5-(piperidin-1-yl)pentyl)-5H-pyrrolo[3,2-d]pyrimidine-6-carbonitrile formate]",1 to 100,–
"CCCCOc1nc(N)c2[nH]c(C#N)c(CCCCN3CCCCC3)c2n1 [Example 3, 4-amino-2-butoxy-7-(4-(piperidin-1-yl)butyl)-5H-pyrrolo[3,2-d]pyrimidine-6-carbonitrile formate]",1 to 100,–
"CCCCOc1nc(N)c2[nH]c(C#N)c(CCCCCN3CCOCC3)c2n1 [Example 4, 4-amino-2-butoxy-7-(5-morpholin-1-yl)pentyl)-5H-pyrrolo[3,2-d]pyrimidine-6-carbonitrile formate]",1 to 100,–
"CCCCOc1nc(N)c2[nH]c(C#N)c(CCCCCN3CC4(COC4)C3)c2n1 [Example 5, 7-(5-(2-oxa-6-azaspiro[3.3]heptan-6-yl)pentyl)-4-amino-2-butoxy-5H-pyrrolo[3,2-d]pyrimidine-6-carbonitrile formate]",1 to 100,–
"CCCCOc1nc(N)c2[nH]c(C#N)c(CCCCCN3CCN(C)CC3)c2n1 [Example 6, 4-amino-2-butoxy-7-(5-(4-methylpiperazin-1-yl)pentyl)-5H-pyrrolo[3,2-d]pyrimidine-6-carbonitrile formate]",1 to 100,–
"CCCCOc1nc(N)c2[nH]c(C#N)c(CCCCCN3CC4CC3CN4C)c2n1 (stereo not shown) [Example 7, 4-amino-2-butoxy-7-(5-(5-methyl-2,5-diazabicyclo[2.2.1]heptan-2-yl)pentyl)-5H-pyrrolo[3,2-d]pyrimidine-6-carbonitrile formate]",250 to 500,–
"CCCCOc1nc(N)c2[nH]c(C#N)c(CCCCCN(CC)CC)c2n1 [Example 8, 4-amino-2-butoxy-7-(5-(diethylamino)pentyl)-5H-pyrrolo[3,2-d]pyrimidine-6-carbonitrile formate]",1 to 100,–
"CCCCOc1nc(N)c2[nH]c(C#N)c(CCCCCN3CCC(F)(F)CC3)c2n1 [Example 9, 4-amino-2-butoxy-7-(5-(4,4′-difluoro-1-piperidinyl)pentyl)-5H-pyrrolo[3,2-d]pyrimidine-6-carbonitrile formate]",100 to 250,–
"CCCCOc1nc(N)c2[nH]c(C#N)c(CCCCCN3CCN(C)CC3=O)c2n1 [Example 11, 4-amino-2-butoxy-7-(5-(4-methyl-2-oxopiperazin-1-yl)pentyl)-5H-pyrrolo[3,2-d]pyrimidine-6-carbonitrile formate]",100 to 250,–
CCCCOc1nc(N)c2[nH]c(C#N)c(CCCCCN3CCC[C@@H]3C(N)=O)c2n1 [Example 13],1 to 100,–
"CCCCOc1nc(N)c2[nH]c(C#N)c(CCCCCN3CCCC3C(=O)N(C)C)c2n1 (stereo not shown) [Example 14, 4-amino-2-butoxy-7-(5-(2-(N,N′-dimethylformamido)-pyrrolidin-1-yl)pentyl)-5H-pyrrolo[3,2-d]pyrimidin-6-nitrile formate]",1 to 100,–
"CCCCOc1nc(N)c2[nH]c(C#N)c(CCCCCN3CCCC3C(=O)N3CCN(C)CC3)c2n1 (stereo not shown) [Example 15, 4-amino-2-butoxy-7-(5-((2-(4-methylpiperazine-1-carbonyl)pyrrolidin-1-yl)pentyl)-5H-pyrrolo[3,2-d]pyrimidine-6-carbonitrile formate]",100 to 250,–
"CCCCOc1nc(N)c2[nH]c(C#N)c(CCCCCN3CCCC3C(=O)NCC3CC3)c2n1 (stereo not shown) [Example 16, formate]",100 to 250,–
"CCCCOc1nc(N)c2[nH]c(C#N)c(CCCCCN3CCCCC3C(N)=O)c2n1 (stereo not shown) [Example 17, hydrochloride]",1 to 100,–
"CCCCOc1nc(N)c2[nH]c(C#N)c(CCCCCNC(C(N)=O)C(C)C)c2n1 (stereo not shown) [Example 18, 4-amino-2-butoxy-7-(5-((1-formamido-1′-isopropyl)amino)pentyl)-5H-pyrrolo[3,2-d]pyrimidine-6-carbonitrile hydrochloride]",1 to 100,–
"CCCCOc1nc(N)c2[nH]c(C#N)c(CCCCCCN3CCCC3)c2n1 [Example 19, 4-amino-2-butoxy-7-(6-(tetrahydropyrrol-1-yl)hexyl)-5H-pyrrolo[3,2-d]pyrimidine-6-carbonitrile formate]",1 to 100,–
"CCCCOc1nc(N)c2[nH]c(C#N)c(CCCCCN3CCCC3)c2n1 [Example 20, 4-amino-2-butoxy-7-(5-(tetrahydropyrrol-1-yl)pentyl)-5H-pyrrolo[3,2-d]pyrimidine-6-carbonitrile hydrochloride]",1 to 100,–
"CCCCOc1nc(N)c2[nH]c(C#N)c(CCCCCN3CC4CCC(C3)N4C)c2n1 [Example 21, 4-amino-2-butoxy-7-(5-(8-methyl-3,8-diazabicyclo[3.2.1]octan-3-yl)pentyl)-5H-pyrrolo[3,2-d]pyrimidine-6-carbonitrile formate]",100 to 250,–
"CCCCOc1nc(N)c2[nH]c(C#N)c(CCCCC3CCCCN3)c2n1 (stereo not shown) [Example 22, 4-amino-2-butoxy-7-(4-(piperidin-2-yl)butyl)-5H-pyrrolo[3,2-d]pyrimidine-6-carbonitrile formate]",100 to 250,–
"CCCCOc1nc(N)c2[nH]c(C#N)c(CCCCC3CCCCN3C(=O)NC)c2n1 (stereo not shown) [Example 23, 4-amino-2-butoxy-7-(4-(1-(1-N-methylcarbonyl)piperidin-2-yl)butyl)-5H-pyrrolo[3,2-d]pyrimidin-6-nitrile]",100 to 250,–
"CCCCOc1nc(N)c2[nH]c(C#N)c(CCCC3CCN(C)CC3)c2n1 [Example 24, 4-amino-2-butoxy-7-(3-(1-methylpiperidin-4-yl)propyl)-5H-pyrrolo[3,2-d]pyrimidine-6-carbonitrile formate]",1 to 100,–
"CCC[C@H](C)Oc1nc(N)c2[nH]c(=O)n(CCCCCN3CCCCC3)c2n1.Cl [GSK-2245035, reference compound]",1 to 100,IFN-α Conc. (1 mM) (Female Balb/c mice): <100 pg/mL; IFN-α Conc. (3 mM) (Female Balb/c mice): 1000 pg/mL; TNF-α Conc. (3 mM) (Female Balb/c mice): <10 pg/mL; IFN-α Conc. (10 mM) (Female Balb/c mice): 3500 pg/mL; TNF-α Conc. (10 mM) (Female Balb/c mice): 50 pg/mL; IFN-α Conc. (30 mM) (Female Balb/c mice): 4500 pg/mL; TNF-α Conc. (30 mM) (Female Balb/c mice): 400 pg/mL
